Data set [1] relates to α6- and δ-containing GABAa receptors. As to conditions: within anesthetically relevant concentration; cited from earlier work.
A further data set concerns mice. As to conditions: not significant when compared with ketamine; cited from earlier work.
For data set [2], the target named is NMDA-D (NR1/2D) receptors (Homo sapiens, UniProt O15399+Q05586). Description: Antagonist activity on NMDA receptors (current blockade and recovery).
Data set [3] is described as follows: Lipophilicity relative to ketamine. The data set is classed as physicochemical.
A further data set has as its target NMDA-NR1/2C receptors (Homo sapiens, UniProt Q05586+Q14957). Description: Antagonist activity on NMDA receptors (current blockade and recovery). Conditions: concentrations 0.1 to 200 μM. The format is cell-based.
The next data set relates to NMDA receptors. As to the kind of experiment: NMDA receptor blockade and recovery, subtypes not separated in the text. The format is cell-based. Conditions: compared with ketamine.
Data set [4] concerns the target NMDA-A (NR1/2A) receptors (Homo sapiens, UniProt Q05586+Q12879). Description: Antagonist activity on NMDA receptors (current blockade and recovery).
In data set [5] the target is NMDA-B (NR1/2B) receptors (Homo sapiens, UniProt Q05586+Q13224). The data set is described as above.
The subject of a further data set is GABAa receptors. As to the kind of experiment: Agonist activity on GABAa receptors, subtype not separated in the text. The data set is classed as cell-based. Conditions: for potentiation of GABAA current / response from GABAa receptors, in words: relative to ketamine, various concentrations. The method, then: (§1) The GABAa subtypes α6β2δ and α1β2γ2 receptors are expressed at high levels exclusively within mature cerebellar granule neurons.
(§2) The ketamine analogues were tested for agonist activities at GABAa receptors both in the presence and absence of GABA (FIGS. 13-16). […] Oxime 2 was prepared both as a mono-salt and di-salt.

The target of the next data set is T1, α6β2δ GABAa receptors (Homo sapiens, UniProt O14764+P47870+Q16445).
T1 construct: expressed in transfected cells
Description: Agonist activity of ketamine analogues on GABAa receptors (potentiation of GABA current, oocyte expression system). The data set is classed as cell-based. The protocol: as §1, §2

In data set [6] the test system is rats. Description: Tail suspension model of depression in rats. Conditions: 5 mg/kg, tail suspension for 12 minutes. The format is in vivo. The method, then: Rats were dosed with ketamine oxime disalt and then tested in a model of depression. FIG. 24 illustrates an analysis of the antidepressant effects of ketamine and the oxime analogue at 5 mg/kg in rats undergoing tail suspension for 12 minutes. Note that immobility, giving up the struggle, is a sign of depression in this model. […] V is vehicle, A is ketamine, B is ketamine oxime analogue.

The next data set deals with T2, α1β2γ2 GABAa receptors (Homo sapiens, UniProt P14867+P18507+P47870).
T2 construct: expressed in transfected cells
Description: Agonist activity of ketamine analogues on GABAa receptors (potentiation of GABA current, oocyte expression system). The format is cell-based. As to conditions: for potentiation of GABAa current, in words: 20 μM. The protocol: as §1, §2

Data set [7] has as its system rats. As to the kind of experiment: Dose response study of motor coordination in rats (open field behavior). The data set is classed as in vivo. The protocol: The effect of ketamine oxime disalt on motor coordination in rats was evaluated.
Data set [8] concerns NMDA receptors with NR2-A and NR2-B subunits. Conditions: cited from earlier work.
Where [9] appears, read: NMDA-D (NR1/2D), drug concentration 50 μM, current post drug treatment.
Where [10] appears, read: NMDA-NR1/2D, affinity study, concentrations 0.1 to 200 μM.
[11] abbreviates: NMDA-A (NR1/2A), drug concentration 50 μM, current post drug treatment.
[12] abbreviates: NMDA-NR1/2A, affinity study, concentrations 0.1 to 200 μM.
[13] abbreviates: NMDA-B (NR1/2B), drug concentration 50 μM, current post drug treatment.
The mark [14] stands for this setting: NMDA-NR1/2B, affinity study, concentrations 0.1 to 200 μM.

T1 sequence (Q16445 20-453): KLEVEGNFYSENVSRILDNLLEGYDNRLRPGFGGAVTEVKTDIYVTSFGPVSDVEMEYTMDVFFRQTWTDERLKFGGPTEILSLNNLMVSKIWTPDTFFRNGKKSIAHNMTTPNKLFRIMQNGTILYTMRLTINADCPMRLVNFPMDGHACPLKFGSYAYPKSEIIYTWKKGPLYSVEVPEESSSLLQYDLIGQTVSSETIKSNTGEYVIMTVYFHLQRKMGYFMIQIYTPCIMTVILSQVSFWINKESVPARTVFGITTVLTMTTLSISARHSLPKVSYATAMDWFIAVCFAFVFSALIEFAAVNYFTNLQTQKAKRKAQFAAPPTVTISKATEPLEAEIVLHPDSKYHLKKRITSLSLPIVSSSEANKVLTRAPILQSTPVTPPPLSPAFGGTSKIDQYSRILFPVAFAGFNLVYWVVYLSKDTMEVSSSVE
T1 sequence (P47870 25-512 limits assumed): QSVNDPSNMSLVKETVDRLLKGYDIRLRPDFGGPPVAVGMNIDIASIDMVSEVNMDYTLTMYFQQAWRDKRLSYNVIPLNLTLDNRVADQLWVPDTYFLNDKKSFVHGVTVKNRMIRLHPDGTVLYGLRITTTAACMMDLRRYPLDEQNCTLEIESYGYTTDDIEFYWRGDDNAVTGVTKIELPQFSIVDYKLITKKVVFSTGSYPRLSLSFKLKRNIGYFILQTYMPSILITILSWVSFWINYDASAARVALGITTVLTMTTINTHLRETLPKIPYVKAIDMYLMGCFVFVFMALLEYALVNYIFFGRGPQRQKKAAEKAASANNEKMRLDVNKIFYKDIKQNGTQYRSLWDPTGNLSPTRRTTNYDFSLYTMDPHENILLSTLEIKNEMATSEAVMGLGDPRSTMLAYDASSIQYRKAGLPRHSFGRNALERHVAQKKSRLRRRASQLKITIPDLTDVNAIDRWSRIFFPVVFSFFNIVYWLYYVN
T1 sequence (O14764 25-452): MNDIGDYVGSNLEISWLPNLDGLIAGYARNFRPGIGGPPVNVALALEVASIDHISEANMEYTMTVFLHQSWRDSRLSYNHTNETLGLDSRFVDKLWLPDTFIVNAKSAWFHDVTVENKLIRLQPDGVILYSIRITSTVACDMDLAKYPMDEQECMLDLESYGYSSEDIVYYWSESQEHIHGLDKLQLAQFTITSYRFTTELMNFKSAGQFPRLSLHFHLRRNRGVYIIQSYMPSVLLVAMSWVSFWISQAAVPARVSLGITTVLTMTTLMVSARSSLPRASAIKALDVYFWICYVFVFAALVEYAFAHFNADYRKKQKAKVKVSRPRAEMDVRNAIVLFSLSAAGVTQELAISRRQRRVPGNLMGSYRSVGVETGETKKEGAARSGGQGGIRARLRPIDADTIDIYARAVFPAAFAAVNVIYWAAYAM
Sequence of NMDA-D (NR1/2D) receptors (O15399 28-1336, other chains not shown): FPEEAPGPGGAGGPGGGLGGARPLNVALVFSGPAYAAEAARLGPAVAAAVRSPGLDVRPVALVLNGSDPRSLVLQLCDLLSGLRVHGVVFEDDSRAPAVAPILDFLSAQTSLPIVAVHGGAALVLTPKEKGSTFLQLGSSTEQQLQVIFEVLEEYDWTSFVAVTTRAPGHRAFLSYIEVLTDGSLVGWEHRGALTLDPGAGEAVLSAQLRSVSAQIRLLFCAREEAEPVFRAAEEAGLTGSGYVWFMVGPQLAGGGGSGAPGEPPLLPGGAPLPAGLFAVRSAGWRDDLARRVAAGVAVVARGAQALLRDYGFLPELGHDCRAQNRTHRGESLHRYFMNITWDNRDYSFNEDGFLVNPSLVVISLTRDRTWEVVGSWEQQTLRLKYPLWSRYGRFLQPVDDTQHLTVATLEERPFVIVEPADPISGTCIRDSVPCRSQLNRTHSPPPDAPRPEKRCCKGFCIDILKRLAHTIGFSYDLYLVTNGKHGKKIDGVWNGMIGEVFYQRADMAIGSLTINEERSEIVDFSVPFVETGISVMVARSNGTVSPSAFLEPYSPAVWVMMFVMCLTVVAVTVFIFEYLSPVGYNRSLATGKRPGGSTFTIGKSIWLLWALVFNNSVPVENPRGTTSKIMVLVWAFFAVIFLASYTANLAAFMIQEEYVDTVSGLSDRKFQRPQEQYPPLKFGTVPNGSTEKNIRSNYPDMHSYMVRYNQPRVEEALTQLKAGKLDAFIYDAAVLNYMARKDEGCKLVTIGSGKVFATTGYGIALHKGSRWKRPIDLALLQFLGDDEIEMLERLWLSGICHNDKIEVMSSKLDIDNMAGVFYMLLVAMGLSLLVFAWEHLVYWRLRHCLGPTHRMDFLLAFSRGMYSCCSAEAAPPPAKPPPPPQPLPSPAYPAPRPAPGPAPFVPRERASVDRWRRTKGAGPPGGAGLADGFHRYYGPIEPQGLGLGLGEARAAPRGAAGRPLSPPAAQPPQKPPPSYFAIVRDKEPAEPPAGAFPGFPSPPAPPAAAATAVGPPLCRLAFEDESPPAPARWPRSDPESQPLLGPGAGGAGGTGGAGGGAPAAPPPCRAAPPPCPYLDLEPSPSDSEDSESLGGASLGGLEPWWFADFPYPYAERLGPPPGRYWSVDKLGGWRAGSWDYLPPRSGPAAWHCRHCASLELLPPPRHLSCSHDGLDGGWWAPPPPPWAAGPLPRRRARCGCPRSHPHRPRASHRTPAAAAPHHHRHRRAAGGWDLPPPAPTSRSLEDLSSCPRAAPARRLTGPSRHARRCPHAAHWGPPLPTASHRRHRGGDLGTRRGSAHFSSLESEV
Sequence of NMDA-B (NR1/2B) receptors (Q13224 27-1484, other chains not shown): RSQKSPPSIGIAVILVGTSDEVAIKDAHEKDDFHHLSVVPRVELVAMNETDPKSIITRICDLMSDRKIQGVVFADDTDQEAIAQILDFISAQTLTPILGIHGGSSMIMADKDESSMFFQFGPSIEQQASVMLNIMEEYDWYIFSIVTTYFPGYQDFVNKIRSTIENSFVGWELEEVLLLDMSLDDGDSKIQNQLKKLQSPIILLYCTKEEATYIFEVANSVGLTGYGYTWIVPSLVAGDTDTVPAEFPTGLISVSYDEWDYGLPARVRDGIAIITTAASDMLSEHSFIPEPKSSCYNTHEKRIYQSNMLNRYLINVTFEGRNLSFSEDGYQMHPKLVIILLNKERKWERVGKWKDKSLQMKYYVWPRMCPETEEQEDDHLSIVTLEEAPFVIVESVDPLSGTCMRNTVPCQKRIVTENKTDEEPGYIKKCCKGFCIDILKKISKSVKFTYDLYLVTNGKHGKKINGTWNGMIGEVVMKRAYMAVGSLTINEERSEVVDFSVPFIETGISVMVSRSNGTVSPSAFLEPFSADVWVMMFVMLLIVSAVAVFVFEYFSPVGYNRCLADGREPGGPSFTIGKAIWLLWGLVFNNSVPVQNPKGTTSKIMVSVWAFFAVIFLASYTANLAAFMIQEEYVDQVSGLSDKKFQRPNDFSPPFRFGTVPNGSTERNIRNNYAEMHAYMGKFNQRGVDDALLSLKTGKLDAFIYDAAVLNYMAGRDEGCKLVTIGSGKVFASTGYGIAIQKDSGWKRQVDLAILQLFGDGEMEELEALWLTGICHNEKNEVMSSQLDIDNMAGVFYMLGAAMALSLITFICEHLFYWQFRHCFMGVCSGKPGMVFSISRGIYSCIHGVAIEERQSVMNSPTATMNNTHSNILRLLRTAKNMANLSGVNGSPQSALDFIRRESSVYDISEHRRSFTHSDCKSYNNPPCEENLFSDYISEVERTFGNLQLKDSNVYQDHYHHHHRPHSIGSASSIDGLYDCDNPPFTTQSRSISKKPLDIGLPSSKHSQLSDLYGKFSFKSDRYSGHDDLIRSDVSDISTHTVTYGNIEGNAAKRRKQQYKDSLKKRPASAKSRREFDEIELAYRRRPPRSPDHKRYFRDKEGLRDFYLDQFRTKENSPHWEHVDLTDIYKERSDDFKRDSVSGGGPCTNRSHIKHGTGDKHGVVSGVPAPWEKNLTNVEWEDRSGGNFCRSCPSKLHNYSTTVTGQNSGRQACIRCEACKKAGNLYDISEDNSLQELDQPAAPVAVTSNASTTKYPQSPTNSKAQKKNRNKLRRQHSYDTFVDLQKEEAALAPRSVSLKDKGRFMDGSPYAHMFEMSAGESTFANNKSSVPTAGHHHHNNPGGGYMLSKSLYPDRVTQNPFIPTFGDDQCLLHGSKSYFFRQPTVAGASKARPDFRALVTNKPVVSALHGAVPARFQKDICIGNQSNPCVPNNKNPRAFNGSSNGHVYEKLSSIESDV
T2 sequence (P14867 28-456): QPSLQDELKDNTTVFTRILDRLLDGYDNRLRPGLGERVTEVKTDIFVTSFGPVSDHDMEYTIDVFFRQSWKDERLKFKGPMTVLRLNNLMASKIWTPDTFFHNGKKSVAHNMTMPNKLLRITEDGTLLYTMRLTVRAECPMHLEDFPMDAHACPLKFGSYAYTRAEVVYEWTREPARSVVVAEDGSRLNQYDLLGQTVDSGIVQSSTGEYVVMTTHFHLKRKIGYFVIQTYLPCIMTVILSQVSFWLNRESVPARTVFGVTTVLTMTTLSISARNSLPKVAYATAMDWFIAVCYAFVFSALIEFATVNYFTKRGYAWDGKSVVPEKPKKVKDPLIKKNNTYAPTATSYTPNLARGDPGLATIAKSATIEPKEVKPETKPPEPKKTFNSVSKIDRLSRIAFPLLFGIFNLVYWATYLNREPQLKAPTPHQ
T2 sequence (P47870 25-512 limits assumed): as the sequence (P47870 25-512 limits assumed) above
T2 sequence (P18507 40-475): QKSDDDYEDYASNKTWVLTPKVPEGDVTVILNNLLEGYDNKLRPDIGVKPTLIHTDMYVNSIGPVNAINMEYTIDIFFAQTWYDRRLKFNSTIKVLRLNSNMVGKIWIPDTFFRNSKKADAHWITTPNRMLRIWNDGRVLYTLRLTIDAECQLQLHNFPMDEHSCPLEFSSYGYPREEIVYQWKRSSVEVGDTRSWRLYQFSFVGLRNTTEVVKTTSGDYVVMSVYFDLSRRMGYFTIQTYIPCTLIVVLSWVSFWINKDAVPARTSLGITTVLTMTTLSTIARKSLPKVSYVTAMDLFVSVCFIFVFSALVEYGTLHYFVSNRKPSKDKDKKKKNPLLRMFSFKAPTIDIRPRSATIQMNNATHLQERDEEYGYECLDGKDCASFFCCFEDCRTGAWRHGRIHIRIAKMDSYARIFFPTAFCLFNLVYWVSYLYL

Consider `C[C@]12N[C@H](Cc3ccccc31)c1ccccc12` [Mk-801], for which, in [1], the “potentiation of GABA / tonic chloride current” value is recorded as “less active compared to ketamine”.

For the compound `CC1(N)C(=O)CCc2ccccc21` (stereo not drawn) [1-amino-1-methyl-2-tetralone], the locomotor activity entry with mice is “decreased”.

In the case of `CNC1(c2ccccc2Cl)CCCC/C1=N\O` (stereo not drawn) [Oxime, 2-(2-Chloro-phenyl)-2-methylamino-cyclohexanone oxime], the IC50 (usually the point on the concentration scale where inhibition reaches its midpoint) in [2] came to 1070 nM; against NMDA-NR1/2C receptors it was 747 nM; in data set [4] it was 5910 nM; in [5], 1070 nM. The inhibition (in general, the relative decrease from the control value, in per cent) at 50 µM in data set [2] was 86.7%; in data set [4] it was 89.2%; in data set [5] it was 83%. The “% Recovery” value in data set [2] (setting [9]) was determined as 52.272%; in data set [2] (setting [10]), 68%; at NMDA-NR1/2C receptors (affinity study) it was 44%; in data set [4] (setting [11]), 86.1538%; in [4] (setting [12]) it was 74%; in data set [5] (setting [13]), 33.9622%. Moreover, the “% Recovery” value in [5] (setting [14]) is recorded as 31%. In [3], the “lipophilicity compared to ketamine” value is “reduce lipophilicity”. For the same compound, the “lasting effect following wash of the drug” value in the data set with NMDA receptors is “less than ketamine”. Also, in data set [4] (NMDA-A receptors), the IC50 versus ketamine result is listed as “two fold higher”. Besides, the “excitory post synaptic potential relative to ketamine” value in the data set on GABAa receptors (GABAa receptors) was “two times more excitory post synaptic potential than ketamine”. For the same compound, the “potentiation of GABAA current / response from GABAa receptors, in words” value (“potentiation of GABAA current / response” below) in the data set with GABAa receptors is on record as “greatly potentiated”.

With `CNC1(c2ccccc2Cl)CCCC/C1=N\NC(N)=O` (stereo not drawn) [Semicarbazone, 2-(2-Chloro-phenyl)-2-methylamino-cyclohexanone O-semicarbazone], the inhibition at 50 µM came out at 33.3% in data set [2], 33.6% in [4] and 50.8% in data set [5]. Also, the “% Recovery” value in [5] (setting [13]) was found to be 98.484%. The “potentiation of GABAA current / response” value with GABAa receptors is “less sensitive than ketamine”.

Regarding `CNC1(c2ccccc2Cl)CCCC/C1=N\O` (stereo not drawn) [Oxime (Monosalt), 2-(2-Chloro-phenyl)-2-methylamino-cyclohexanone oxime], the “IAverage = (IGABA + Drug/IGABA) 100” value at α6β2δ GABAa receptors (Conc. 10 (μM)) came out at 128.2 n. amp; at α6β2δ GABAa receptors (Conc. 20 (μM)), 193.746 n. amp; on α6β2δ GABAa receptors (Conc. 50 (μM)) it was 312.04 n. amp.

`CNC1(c2ccccc2Cl)CCCCC1=O` (stereo not drawn) [Ketamine, reference compound]: the IC50 in data set [2] worked out at 760 nM; in [4], 2320 nM; in [5], 820 nM. The inhibition at 50 µM in data set [2] was 88.1%; in data set [4], 57.6%; in data set [5], 80.5%. Besides, the “% Recovery” value in data set [2] (setting [9]) stood at 26.19%; in data set [2] (setting [10]), 24%; in data set [4] (setting [11]), 84.745%; in data set [4] (setting [12]), 28%; in [5] (setting [13]) it was 34.564%; in data set [5] (setting [14]), 19%. Further, the “potentiation of GABA / tonic chloride current” value in data set [1] was “potentiated the GABA current”. Besides, the “immobility in tail suspension, overall versus saline” value in the data set on rats [6] is “No significant differences”. In addition, the “potentiation of GABAa current, in words” value on α1β2γ2 GABAa receptors is “not able to potentiate any current”. For the same compound, the “IAverage = (IGABA + Drug/IGABA) 100” value on α1β2γ2 GABAa receptors (Conc. 20 (μM)) turned out to be 0 n. amp; on α1β2γ2 GABAa receptors (Conc. 50 (μM)), 105 n. amp; on α1β2γ2 GABAa receptors (Conc. 100 (μM)), 119 n. amp; at α6β2δ GABAa receptors (Conc. 10 (μM)) it was 116.2 n. amp; on α6β2δ GABAa receptors (Conc. 20 (μM)), 157.1 n. amp; on α6β2δ GABAa receptors (Conc. 50 (μM)), 218.3 n. amp.

For `CNC1(c2ccccc2Cl)CCCC/C1=N\O` (stereo not drawn) [Oxime (Disalt), 2-(2-Chloro-phenyl)-2-methylamino-cyclohexanone oxime], the “effect on motor coordination (open field behavior)” value with rats [7] (6 and 12 minute period following injection, dose response) is reported as “CNS depressant effects”. The “observed behaviour in vivo” value with rats [7] (at higher doses) was “loss of equilibrium, unsteady gait and immobility”. The “righting reflex (an indication of anesthesia)” value in the data set on rats [7] (at higher doses) was “without loss of righting reflex”. Besides, in the data set on rats [6], the “immobility in tail suspension, overall versus saline” value is given as “No significant differences”. Further, the “immobility in tail suspension, slope analysis” value in the data set with rats [6] is recorded as “decreased immobility”. Moreover, the “potentiation of GABAa current, in words” value on α1β2γ2 GABAa receptors is listed as “greatly potentiated”; on α6β2δ GABAa receptors (20 μM) it was “greater potentiation”. For the same compound, the “increase in potentiation relative to ketamine” value on α1β2γ2 GABAa receptors (100 μM) and at α6β2δ GABAa receptors (50 μM) was “nearly two fold increase” in each case. In addition, the “IAverage = (IGABA + Drug/IGABA) 100” value is 122.678 n. amp on α1β2γ2 GABAa receptors (Conc. 20 (μM)); 153.41 n. amp at α1β2γ2 GABAa receptors (Conc. 50 (μM)); 214.5 n. amp on α1β2γ2 GABAa receptors (Conc. 100 (μM)); 165.4 n. amp on α6β2δ GABAa receptors (Conc. 10 (μM)); 239 n. amp on α6β2δ GABAa receptors (Conc. 20 (μM)); 418 n. amp on α6β2δ GABAa receptors (Conc. 50 (μM)).

Take `CC1(N)CCc2ccccc2C1=O` (stereo not drawn) [2-amino-2-methyl-1-tetralone]: the locomotor activity result with mice was “increased locomotor activity”.

As to `CNC1(c2ccccc2Cl)CCCC/C1=N\OC` (stereo not drawn) [Methoxime, 2-(2-Chloro-phenyl)-2-methylamino-cyclohexanone O-methyl-oxime], the inhibition at 50 µM came to 57.5% in data set [2], 25.3% in data set [4] and 75.6% in data set [5]. The “% Recovery” value is 82.5% in data set [2] (setting [9]), 98.453% in data set [4] (setting [11]) and 71.6417% in [5] (setting [13]). In addition, in data set [3], the “lipophilicity compared to ketamine” value is given as “increased lipophilicity”. The “potentiation of GABAA current / response” value in the data set with GABAa receptors is “did not evoke considerable response”.

As to `CNC1(c2ccc(OC)cc2Cl)CCCCC1=O` (stereo not drawn) [G], the “functional activity in comparison to ketamine” value in [8] was “appreciable activity”.

In the case of `c1ccc(C2(N3CCCCC3)CCCCC2)cc1` [PCP, Phencyclidine, reference compound], the inhibition at 50 µM in [2] is 87.5%; in data set [4] it was 88.4%; in [5], 96.8%. The “% Recovery” value in data set [2] (setting [9]) is listed as 66.666%; in data set [4] (setting [11]), 93.953%; in data set [5] (setting [13]), 59.677%. The “potentiation of GABA / tonic chloride current” value in [1] is “less active compared to ketamine”.

With `CNC1(c2ccccc2Cl)CCCCC1O` (stereo not drawn) [Hydroxy, 2-(2-Chloro-phenyl)-2-methylamino-cyclohexanol], the “potentiation of GABAA current / response” value in the data set with GABAa receptors is “less sensitivity than ketamine”. Moreover, the “IAverage = (IGABA + Drug/IGABA) 100” value on α6β2δ GABAa receptors (Conc. 10 (μM)) came out at 100 n. amp; on α6β2δ GABAa receptors (Conc. 20 (μM)), 100 n. amp; on α6β2δ GABAa receptors (Conc. 50 (μM)), 123.98 n. amp; on α6β2δ GABAa receptors (Conc. 100 (μM)) it was 135.41 n. amp.

In the case of `CNC1(c2ccccc2Cl)CCCC/C1=N\OCc1ccccc1` (stereo not drawn) [Benzoxime, 2-(2-Chloro-phenyl)-2-methylamino-cyclohexanone O-benzyl-oxime], the inhibition at 50 µM in data set [2] was found to be 49.3%; in data set [5] it was 41%. Moreover, the “% Recovery” value came to 79.452% in data set [2] (setting [9]) and 77.639% in data set [5] (setting [13]). Also, the “lipophilicity compared to ketamine” value in data set [3] was “increased lipophilicity”. In addition, the “potentiation of GABAA current / response” value in the data set with GABAa receptors is recorded as “did not evoke considerable response”.

The values are drawn from patent publication US9073819B2, “Compositions, methods of use, and methods of treatment” (UNIVERSITY OF SOUTH FLORIDA, priority 2011, dated 2015).
